Results on one compound are retold here after US20220089602A1, “COMPOUNDS THAT INDUCE FERROPTIC CELL DEATH” (The Board of Trustees of the University of Illinois, priority 2019, published 2022).

A value given as a limit tells only on which side of the number the result lay.

In general, MIC refers to the least concentration at which growth counts as inhibited. Low readings indicate inhibition by little substance, high ones a need for much substance. The AUC is concentration integrated over time. One may read the half-life as the time in which the quantity being followed falls by half. A higher half-life goes with slow decline.

For one data set, the system named is red blood cells. The data set is described as follows: Hemolysis assay. The format is cell-based, human. The following applies: 2 hr treatment with 333 μM. As to the method:
Whole human blood in citrate phosphate dextrose was obtained from Bioreclamation LLC, stored at 4° C. and used before expiration date. 100 μL of whole blood was combined with 500 μL saline (0.9% NaCl) and centrifuged for 5 min at 300×g. The supernatant was carefully removed from the erythrocyte pellet and the liquid was discarded. Washed pellet 3× in 500 μL saline. The erythrocyte pellet was resuspended in 800 μL of Red Blood Cell Buffer (10 mM Na2HPO4, 150 mM NaCl, 1 mM MgCl2, pH 7.4). To a 0.5 mL eppendorf tube or a PCR plate was added 1.0 μL of 30× compound in DMSO and 19 μL RBC Buffer. For negative controls, 1.0 μL DMSO was combined with 19 μL RBC buffer. For positive controls, either 20 μL MilliQ H2O or 1.0 μL 30% Triton X-100 were combined with 19 μL RBC Buffer. Tubes or plates were briefly centrifuged. Next, 10 μL of washed erythrocyte suspension was added to each tube, then sealed. After incubation at 37° C. for 2 h, samples were centrifuged for 5 min at 300×g, and 20 μL of supernatant was carefully removed and transferred to wells of a clear flat-bottomed 384-well plate. Absorbance was measured at 540 nm. The data were plotted as compound concentration versus percent hemolysis, and fitted to OriginPro (OriginLab, Northampton, Mass.).

The test system of the next data set is S. aureus. The data set is described as follows: Antibacterial activity (MIC). The format is cell-based. The following applies: Staphylococcus aureus; gram positive (S. aureus).
Data set [1] has as its system 4T1 triple negative breast cancer cells. Briefly: 4T1 syngeneic subcutaneous tumor model, immunocompetent mice. The data set is classed as in vivo. The following applies: 50 mg/kg i.p., twice a week, five doses, Balb/c. As to the method:
The protocol was approved by the IACUC at the University of Illinois at Urbana-Champaign (Protocol Number: 17192). 9-week old female Balb/C or SCID mice (Charles River) were lightly sedated with i.p. xylazine/ketamine/saline solution. Following sedation, 4T1 murine breast cancer cells suspended in chilled HBSS (100 μL of 4×10^6 cells/mL) were injected subcutaneously into the right flank of shaved and sedated mice using an insulin syringe. On day 8 after inoculation, mice were randomized with 7 mice per group for vehicle or ferroptocide treatment. Vehicle (PEG400) or ferroptocide (50 mg/kg) was administered intraperitoneally as a PEG400 solution twice a week for 5 times. Tumor measurements were performed every 3 or 4 days using a caliper and tumor volume was calculated using the equation (0.5×l×w^2). On day 23 after the 4T1 cells inoculation, mice were sacrificed. Tumors were then surgically removed, and their mass was measured.

A short description of data set [2]: Pharmacokinetic assessment. The data set is classed as in vivo, C57BL/6 mice. As to the method: The protocol was approved by the IACUC at the University of Illinois at Urbana-Champaign (Protocol Number: 14173). In these studies, 10- to 12-week-old female C57BL/6 mice (purchased from Charles River) were used. Ferroptocide was formulated in 100% PEG400. Mice were treated with ferroptocide (40 mg/kg) via i.p. with three mice per time point (15, 30, 45, 60, 120, 240, 480, and 1440 min). At specific time points, mice were sacrificed, and blood was collected, centrifuged; the serum was frozen at −80° C. until analysis. The proteins in a 50 μL aliquot of serum were precipitated by the addition of 50 μL acetonitrile and the sample was centrifuged to remove the proteins. Serum concentrations of ferroptocide were determined by reverse phase HPLC (Shimadzu Corporation, Japan). PK parameters were determined using GraphPad Prism Version 5.00 for Windows.

Data set [3] deals with primary cancer cells from patients with metastatic cancers. Briefly: 72 hr cell viability Alamar Blue assay in primary patient-derived cells. The following applies: versus cisplatin, 5-FU, etoposide, PAC-1. The data set is classed as cell-based, human. As to the method:
Cells were grown at 37° C. under a humidified 5% CO2 atmosphere, in a culture medium consisting of high-glucose (Life Technology) DMEM media for Mia PaCa-2, D54, U87, K7-M2, SK-MEL-5, and 3LL cells or RPMI 1640 for ES-2, HCT 116, MDA-MB-231, A549, T47D, B16-F10, and BT-549 cells or McCoy's 5A media for HT29 cells. All media were supplemented with 10% FBS (Gemini), penicillin (50 IU/ml), streptomycin (50 μg/ml) and glutamine (2 mM) (Cellgro). Primary cells were isolated from pleural effusions of metastatic patients at Carle Foundation Hospital (IRB #15149) following a protocol as described previously (Med. Sci. 2, 70-81, (2014)).
To a 384-well plate, 40 μL of 1.25× compound dilution or 1.25% DMSO-containing media was added (final volume of 1% DMSO). Concentrations of compounds tested were 100 μM to 100 nM. On each plate at least 3 technical replicates per compound were performed. Next, 10 μL of a 100,000 cells/mL suspension was added to each well, yielding a final concentration of 1,000 cells/well. To three wells in column 2 was added 1 μL of 10 mM doxorubicin (final concentration of 200 μM) as positive control of cell death. Plates were sealed with gas-permeable seals and incubated at 37° C. for 72 h. […] Fluorescence was read on a Molecular Devices SpectraMax 3 (excitation=555 nm, emission=585 nm, emission cutoff=570 nm). […]
Background: Alamar Blue is a resazurin reagent that responds to reducing activity.

The test system of another data set is ES-2 cells. Briefly: Cellular ROS production (carboxy-H2DCFDA). The format is cell-based. The following applies: 1 hr. The procedure:
(§1) ES-2 and HCT 116 cells (3×10^5 cells/mL) were plated in 6-well plates. Cells were treated with DMSO, ferroptocide at the indicated concentrations, Etoposide (100 μM), TBHP (100 μM) for 1 hr and 1.5 hr respectively. Cells were washed with HBSS and incubated in the dark for 25 min with 25 μM carboxy-H2DCFDA probe. Cells were then washed 3× with HBSS and harvested at 1000×g, 3 min. After resuspension in 500 μl HBSS buffer, samples were subjected to flow cytometry to record ten thousand events per sample in FL1 channel in BD LSR II Flow Cytometer (BD Bioscience). FCS express V6 De Novo software was used to generate the histograms.

Another data set has as its system HCT 116 cells. Briefly: Cellular ROS production (carboxy-H2DCFDA). The format is cell-based. The following applies: 1.5 hr. The procedure:
as §1

[4] abbreviates: female, mouse, ip, 40 mg/kg i.p., C57BL/6 mice, serum.

On to `C[C@@H]1CC[C@@]23C[C@H](O)C(=O)[C@@]2(O)[C@]1(C)[C@H](OC(=O)CCl)C[C@@H](C1=CCn2c(=O)n(-c4ccccc4)c(=O)n2C1)[C@@H]3C` [Compound P18, ferroptocide], for which the values for the hemolytic activity entry in the data set on red blood cells (listed as Ferroptocide) and with red blood cells (listed as ferroptocide) were “no hemolytic activity” and “Lack of hemolytic activity”, respectively. Further, the MIC in the data set on S. aureus was > 64 µg/mL. Besides, the “effect on subcutaneous 4T1 tumor growth (in words)” value in data set [1] was “inhibits subcutaneous 4T1 tumor growth”. Further, the “tumor growth retardation (tumor volume)” value in data set [1] (compared to vehicle) was 40%. The compound also showed an exposure (AUC) in data set [2] (setting [4]) of 7040 ng·h/mL. For the same compound, the half-life in data set [2] (setting [4]) came out at 9.96 min. The “pharmacokinetics (in words)” value in data set [2] (mice) is given as “poor pharmacokinetics”. The “killing of primary cancer cells versus chemotherapeutics” value in data set [3] was “kills these cancer cells better than approved and experimental chemotherapeutics”. In addition, the ROS production result with ES-2 cells and with HCT 116 cells was “Dose-dependent ROS production” in each case.
